According to patent USRE36744E, “Nasal administration of benzodiazepine hypnotics” (Ribogene, Inc., priority 1994, dated 2000):
Several values for one entry are separate records, joined by “and”; a condition that tells them apart may be missing. Identical values can stand only once.

Assays:
[1] = Comparative oral versus nasal pharmacokinetics of midazolam in dogs (plasma, GC assay); type: in vivo, beagle dogs; conditions: for half-life / Tmax / Cmax: dog, plasma
Method: Air bubbles generated during mixing were removed by centrifugation.
The dose given to each dog was 7.85, 7.89, 7.22, 5.61 mg free base.
GC Assay--for extraction, 0.5 ml of plasma, 100 μl of internal standard (100 ng/ml flurazepam in methanol) and 0.5 ml of 2N sodium hydroxide were vortexed for 5 seconds. Five ml of hexane was then added and the mixture was vortexed for one min. and centrifuges for 4 minutes. […] Fifty μl of hexane/isoamyl alcohol (80:20) was used for reconstitution.
The temperatures for column, injector port and detector were 250°, 310° and 310° C., respectively. The flow rate for argon/methane (95:5) gas was 33 ml/min.

Wistar rats = experiment: Oral versus nasal hypnotic efficacy in rats (duration of sleeping time, loss and reappearance of the righting reflex); type: in vivo
Method: A variety of hypnotics including chloral hydrate, sodium pentobarbital and flurazepam were administered to Wistar rats to compare the efficacy of oral and nasal administration.
Oral Administration Studies: The subjects were fasted for approximately 18 hours; water was available ab libitum. Aqueous solutions of chloral hydrate obtained from Sigma Chemical Co., Ltd. and sodium pentobarbital were separately administered to groups of the subject rats using a constant dose volume of […]. Different dosage levels were obtained by varying the aqueous concentrations of therapeutic drug to identify an effective amount of hypnotic.
The animals were then placed in a constant temperature environment of 32° C. The duration of sleeping time (measured by the loss and reappearance of the righting reflex) was recorded for each animal. The results within each group were then averaged.
Nasal Administration Studies: The methodology of the oral studies was repeated with substitution of nasal administration of aqueous solutions through a fine catheter inserted into the nostril. The therapeutic drug was dosed at a constant volume of 50 μl which would deliver an amount of the hypnotic which would be orally effective.

[2] = Comparative oral versus nasal pharmacokinetics of flurazepam in dogs (plasma, GC assay); type: in vivo, beagle dogs
Method: The efficacy of oral versus nasal administration was examined using the methodology of Example 2.
Oral Administration Studies: Fifteen mg of flurazepam HCl solution was given to each dog with 50 ml of water. […] The plasma samples were stored frozen until GC assay for flurazepam.
Nasal Administration Studies: One hundred and twenty milligrams of flurazepam HCl powder was dissolved in 4 ml of distilled water. […] Air bubbles generated during mixing were eliminated by centrifugation. The pH of the solution was 1.82.
Flurazepam solution was sprayed into both nostrils of the dogs. The dose given to the dogs was 14.5, 12.4, 12.1 and 12.5 mg as flurazepam HCl. Blood sampling times were same as in the oral study. The plasma samples were frozen until GC assay for flurazepam.
Five ml of hexane was then added and the mixture was vortexed together for one min. and centrifuged for 4 minutes. Four ml of the upper organic layer was then pipetted. Fifty μl of hexane/isoamyl alcohol was used for reconstitution.
Flurazepam in plasma was assayed by a Hewlett Packard model 5830A GC-EC. […] The temperatures for column, injector port and detector were 250°, 310° and 310° C., respectively. The flow rate for argon/methane (95:5) gas was 33 ml/min.

[3] = Comparative oral versus nasal pharmacokinetics of triazolam in beagle dogs (plasma, GC assay); conditions: for Cmax / half-life / Tmax: dog, plasma
Method: In two comparative studies separated in time by over one week; four healthy male, 2-3 year old beagle dogs received oral and nasal doses of triazolam. They were fasted overnight before each study and food was withheld until the end of the experiment. They were restrained in a dog sling during the studies while blood (3 ml) was withdrawn from each dog through a cannula inserted into the cephalic vein.
Oral Administration Studies: Two 0.5 mg triazolam tablets were given to each dog with 50 ml of water. Blood samples were taken from the cephalic vein at 0 min before administration and 15, 30, 45, 60, 120, 180, 240, 300, 360 and 420 min after administration. The plasma samples were stored frozen until gas chromotographic assay for triazolam.
Nasal Administration Studies: Thirty milligrams of triazolam powder was dissolved in 5 ml of PEG 400 warmed at 55°-60° C. After the solution was cooled to room temperature, an equal volume of 1% methocel J5MS (Dow Chemical Company, Midland, Mich.) solution was mixed with the triazolam solution. Air bubbles generated during mixing were removed by centrifugation. The final concentration of triazolam in the solvent mixture was assayed by an HPLC method. An Altex C18, 4.6×150 mm column was used. The mobile phase contained 60% of 0.05 M KH2 PO4 (pH=6.0, T. J. Baker) and 40% acetonitrile (Fisher Scientific). Flow rate of mobile phase was 1 ml/min. The wavelength used was 221 nm.
Using a metered dose inhaler, triazolam solution was sprayed into both nostrils of the dogs. The dose administered was determined by weighting the bottle containing the triazolam solution before and after spraying. […] Blood sampling times were the same as in the oral study. The plasma samples were frozen until GC assay for triazolam.
GC Assay: To extract triazolam, 0.5 ml of plasma, 50 μl of internal standard (55 ng/ml clonazepam in methanol) and 3 ml of hexane/methylene chloride (4:3) were vortexed together for 15 seconds and centrifuged for 4 minutes. The bottom aqueous layer was frozen by dry ice/acetone and the upper organic layer was transferred to another tube containing 1 ml of distilled water. The mixture was vortexed for 15 seconds and centrifuged for 4 minutes. Two ml of the upper organic layer was then pipetted into another tube and evaporated to dryness in an vortex-evaporator. […] of toluene was used for reconstitution.
The amount of triazolam in 3 ml of extract plasma was assayed by an HP model 5830A GC-EC. The glass column used was a 6'×1/4" 2 mm on column w/o liner 6" coil (Anspec) with 3% OV-17 […] and detector were 275°, 310° and 350° C., respectively. The flow rate for argon/methane (95:5) gas 42 ml/min.

[4] = dogs, nasal vs oral, dose-normalized
[5] = nasal spray, 5.61-7.89 mg free base, individual dog
[6] = oral, 5 mg free base equivalent, individual dog
[7] = nasal spray, 12.1-14.5 mg as HCl, individual dog

## Cc1ncc2n1-c1ccc(Cl)cc1C(c1ccccc1F)=NC2 [midazolam]
[1]; nasal spray, 5.61-7.89 mg free base, individual dog, read-out: T1/2 NASAL
  half-life: 36.1 min
[1]; nasal spray, 5.61-7.89 mg free base, individual dog, read-out: TMAX NASAL (converted)
  Tmax: 15 min
[1]; nasal spray, 5.61-7.89 mg free base, mean of four dogs, read-out: CMAX NASAL (MEAN)
  Cmax: 101 ng/mL
[1]; nasal spray, 5.61-7.89 mg free base, mean of four dogs, read-out: T1/2 NASAL (MEAN)
  half-life: 33.3 min
[1]; nasal spray, 5.61-7.89 mg free base, mean of four dogs, read-out: TMAX NASAL (MEAN) (converted)
  Tmax: 15 min
[1]; po, 5 mg, oral, 5 mg free base equivalent, mean of four dogs, head marked *, read-out: CMAX PO (MEAN)
  Cmax: 24.5 ng/mL
[1]; po, 5 mg, oral, 5 mg free base equivalent, mean of four dogs, read-out: T1/2 PO (MEAN)
  half-life: 33.2 min
[1]; po, 5 mg, oral, 5 mg free base equivalent, mean of four dogs, read-out: TMAX PO (MEAN) (converted)
  Tmax: 30 min
[1]; dogs, nasal vs oral
  Mean half-life in both routes of administration: about the same
  Tmax after nasal administration earlier than after oral administration: 2 fold
[1]; dogs, nasal vs oral, dose-corrected, FIG. 2
  Plasma levels after nasal administration compared with oral: consistently higher
[1]; [4]
  Mean increase in AUC after nasal administration: 2.5 fold
[1]; dogs, oral vs nasal
  Cmax after oral administration lower than that of nasal route: 4 times
[1]; nasal spray, 5.61-7.89 mg free base, dose-normalized, individual dog
  AUC NASAL: 842.9 ngmin/ml-mg and 520.8 ngmin/ml-mg and 338.5 ngmin/ml-mg and 650.8 ngmin/ml-mg
[1]; nasal spray, 5.61-7.89 mg free base, dose-normalized, mean of four dogs
  AUC NASAL (MEAN): 588.3 ngmin/ml-mg
[1]; [5]
  CMAX NASAL: 159.0 ng/mL and 111.2 ng/mL and 47.1 ng/mL and 87.9 ng/mL
  T1/2 NASAL: 26.8 min and 36.5 min and 33.8 min
[1]; oral, 5 mg free base equivalent, dose-normalized, individual dog
  AUC PO: 235.6 ngmin/ml-mg and 242.0 ngmin/ml-mg and 157.8 ngmin/ml-mg and 333.2 ngmin/ml-mg
[1]; oral, 5 mg free base equivalent, dose-normalized, mean of four dogs
  AUC PO (MEAN): 242.1 ngmin/ml-mg
[1]; [6]
  T1/2 PO: 43.5 min and 50.6 min and 19.4 min and 19.3 min
  TMAX PO: 15.0 min and 45.0 min and 30.0 min

## CCN(CC)CCN1C(=O)CN=C(c2ccccc2F)c2cc(Cl)ccc21 [flurazepam]
Wistar rats
  Hypnotic efficacy by oral administration: the rats proved resistant
[2]; dog, plasma, nasal spray, 12.1-14.5 mg as HCl, individual dog, read-out: TMAX NASAL (converted)
  Tmax: 15 min
[2]; dog, plasma, nasal spray, 12.1-14.5 mg as HCl, mean of four dogs, read-out: CMAX NASAL (MEAN)
  Cmax: 73.3 ng/mL
[2]; dog, plasma, nasal spray, 12.1-14.5 mg as HCl, mean of four dogs, read-out: T1/2 NASAL (MEAN)
  half-life: 168 min
[2]; dog, plasma, nasal spray, 12.1-14.5 mg as HCl, mean of four dogs, read-out: TMAX NASAL (MEAN) (converted)
  Tmax: 15 min
[2]; dog, plasma, po, 15 mg, oral, 15 mg flurazepam HCl, mean of four dogs, head marked *, read-out: CMAX PO (MEAN)
  Cmax: 4.97 ng/mL
[2]; dog, plasma, po, 15 mg, oral, 15 mg flurazepam HCl, mean of four dogs, read-out: TMAX PO (MEAN) (converted)
  Tmax: 26.3 min
[2]; dogs, nasal vs oral
  Tmax after nasal administration relative to oral route: half that of oral route
[2]; dogs, nasal vs oral, dose-corrected, FIG. 3
  Plasma levels after nasal administration compared with oral: consistently higher
[2]; [4]
  Mean increase in AUC after nasal administration: 51 fold
[2]; dogs, oral vs nasal
  Cmax after oral administration lower than that of nasal route: 15 times
[2]; nasal spray, 12.1-14.5 mg as HCl, dose-normalized, individual dog
  AUC NASAL: 922.3 ngmin/ml-mg and 384.9 ngmin/ml-mg and 287.4 ngmin/ml-mg and 314.9 ngmin/ml-mg
[2]; nasal spray, 12.1-14.5 mg as HCl, dose-normalized, mean of four dogs
  AUC NASAL (MEAN): 477.4 ngmin/ml-mg
[2]; [7]
  CMAX NASAL: 161.5 ng/mL and 41.1 ng/mL and 31.5 ng/mL and 59.0 ng/mL
  T1/2 NASAL: 214.7 min and 190.8 min and 163.3 min and 102.6 min
[2]; oral, 15 mg flurazepam HCl, dose-normalized, estimated up to last data point, individual dog
  AUC PO: 8.60 ngmin/ml-mg and 19.30 ngmin/ml-mg and 4.81 ngmin/ml-mg and 20.00 ngmin/ml-mg
[2]; oral, 15 mg flurazepam HCl, dose-normalized, estimated up to last data point, mean of four dogs
  AUC PO (MEAN): 13.20 ngmin/ml-mg
[2]; oral, 15 mg flurazepam HCl, individual dog
  TMAX PO: 45.0 min and 30.0 min

## Cc1nnc2n1-c1ccc(Cl)cc1C(c1ccccc1Cl)=NC2 [triazolam]
[3]; CMAX NASAL (MEAN), nasal spray, 0.9343-1.532 mg, mean of four dogs, ng/ml
  Cmax: 27.6 ng/mL
[3]; CMAX NASAL, nasal spray, 0.9343-1.532 mg, individual dog, ng/ml
  Cmax: 27.2 ng/mL
[3]; T1/2 NASAL (MEAN), nasal spray, 0.9343-1.532 mg, mean of four dogs
  half-life: 57.3 min
[3]; T1/2 NASAL, nasal spray, 0.9343-1.532 mg, individual dog
  half-life: 62.7 min
[3]; TMAX NASAL (MEAN), nasal spray, 0.9343-1.532 mg, mean of four dogs, (min)
  Tmax: 18.8 min
[3]; TMAX NASAL, nasal spray, 0.9343-1.532 mg, individual dog, (min)
  Tmax: 15 min
[3]; Time of peak mean plasma concentration, nasal, dogs, mean
  Tmax: ~18.8 min
[3]; po, 1 mg, CMAX PO (MEAN), two 0.5 mg tablets, mean of four dogs, ng/ml
  Cmax: 7 ng/mL
[3]; po, 1 mg, CMAX PO, two 0.5 mg tablets, individual dog, ng/ml
  Cmax: 7.6 ng/mL
[3]; po, 1 mg, T1/2 PO (MEAN), two 0.5 mg tablets, mean of four dogs
  half-life: 67.5 min
[3]; po, 1 mg, TMAX PO (MEAN), two 0.5 mg tablets, mean of four dogs, (min)
  Tmax: 48.8 min
[3]; po, 1 mg, TMAX PO, two 0.5 mg tablets, individual dog, (min)
  Tmax: 45 min
[3]; po, 1 mg, Time of peak mean plasma concentration, dogs, mean
  Tmax: ~48.8 min
[3]; dogs, nasal
  Nasal absorption: significant nasal absorption
[3]; dogs, nasal vs oral
  Mean AUC after nasal administration larger than that of oral route: 2.4 fold
  Mean half-life in both routes of administration: about the same
[3]; dogs, nasal vs oral, dose-corrected, FIG. 1
  Plasma levels after nasal administration compared with oral: consistently higher
[3]; dogs, oral vs nasal, FIG. 1, attributed to gastric emptying of the tablets
  Variability of oral plasma concentration-time curve compared with nasal: more variability
[3]; nasal spray, 0.9343-1.532 mg, individual dog, (min)
  TMAX NASAL: 30.0
[3]; nasal spray, 0.9343-1.532 mg, individual dog, ng/ml
  CMAX NASAL: 31.20 and 25.20 and 26.60
[3]; oral, two 0.5 mg tablets, individual dog, (min)
  TMAX PO: 60.0 and 30.0
[3]; oral, two 0.5 mg tablets, individual dog, ng/ml
  CMAX PO: 6.10 and 5.50 and 8.70
